The target in this assay is adenylyl cyclase-associated protein 1 (CAP1) (Homo sapiens, UniProt Q01518). Put plainly: ITC with purified CAP1. The assay is classed as binding.

SMILES strings stand for the structures.

adenylyl cyclase-associated protein 1 (CAP1), sequence (Q01518 2-475): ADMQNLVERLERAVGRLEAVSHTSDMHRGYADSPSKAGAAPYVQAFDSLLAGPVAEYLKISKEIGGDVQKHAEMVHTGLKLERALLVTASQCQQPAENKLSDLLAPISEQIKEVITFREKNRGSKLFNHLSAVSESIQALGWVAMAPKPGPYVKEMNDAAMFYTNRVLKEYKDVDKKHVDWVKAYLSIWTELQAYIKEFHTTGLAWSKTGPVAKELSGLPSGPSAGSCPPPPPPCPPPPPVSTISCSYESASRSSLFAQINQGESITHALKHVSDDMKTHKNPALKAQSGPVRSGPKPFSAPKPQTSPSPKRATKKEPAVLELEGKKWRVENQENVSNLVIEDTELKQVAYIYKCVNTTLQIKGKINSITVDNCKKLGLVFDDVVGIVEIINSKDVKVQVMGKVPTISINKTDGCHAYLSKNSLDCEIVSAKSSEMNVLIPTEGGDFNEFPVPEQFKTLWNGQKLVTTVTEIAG

A word on the Kd: it is the constant that tells how readily two partners part at equilibrium. Read a high Kd as a looser complex. For `CC1=C(O)C(=O)C=C2C1=CC=C1[C@@]2(C)CC[C@@]2(C)[C@@H]3C[C@](C)(C(=O)O)CC[C@]3(C)CC[C@]12C` [celastrol], the Kd is 110 nM.
